Data taken from EPA's ToxValDB 9.5.
In brackets after ≈: the same amount, converted by molar mass. Several values for one entry are separate records, joined by “and”; a condition that tells them apart may be missing. Equal entries are not always repeated.

Key:
Rattus norvegicus [1] = conditions: for LD50 / LC50: acute
Oryctolagus sp. = conditions: for NOAEL: gavage
Mus musculus = conditions: for LC50 / LD50: acute; for LD50: injection
Rattus norvegicus [2] = conditions: injection, subcutaneous
Rattus norvegicus [3] = conditions: chronic; duration: 2 years; oral; diet; M/F; neurotoxicity
Rattus norvegicus [4] = conditions: subchronic; oral; gavage; M; Sprague-Dawley; Food Consumption: increase + Urinalysis: Ketone body decrease + Blood Chemistry: T-Cho increase, PL increase, TP increase + Absolute Organ …
[5] = chronic, duration: 104 weeks, oral, diet, CDA
[6] = subchronic, duration: 90 days, oral, gavage, CDA Sprague-Dawley
[7] = acute, dermal, occlusive, New Zealand
[8] = subchronic, duration: 30 days, oral, diet, Sprague-Dawley

C=C(C)C(=O)OCCN(C)C [2-(Dimethylamino)ethyl methacrylate]
LD50 (Rattus norvegicus [1]; dermal, Sprague-Dawley): > 2000 mg/kg
LC50 (Rattus norvegicus [1]; inhalation): 0.62 µg/mL (≈ 3.94 µM)
LD50 (Rattus norvegicus [1]; oral, gavage, Crj:CD): > 2000 mg/kg
NOAEL (Rattus norvegicus [1]; reproduction developmental, duration: 41 days, oral, gavage, Crj:CD, generation: F0): 200 mg/kg-day
NOAEL (Rattus norvegicus [1]; short-term, duration: 3 weeks, inhalation): 643 mg/m3
NOAEL (Rattus norvegicus [1]; subchronic, duration: 41 days, oral, gavage, Crj:CD): 200 mg/kg-day
LD50 (Oryctolagus sp.; acute, dermal): > 3000 mg/kg
LC50 (Mus musculus; inhalation): 1.8 µg/mL (≈ 11.4 µM)
LD50 (Mus musculus; intraperitoneal): 25 mg/kg

Cc1cc(C)cc(O)c1 [3,5-Dimethylphenol]
LC50 (Rattus norvegicus [1]; oral): 608 mg/kg
LC50 (Oryctolagus sp.; acute, oral): 1310 mg/kg
LC50 (Mus musculus; oral): 477 mg/kg

CC(C)(C)c1cc(C(C)(C)c2ccc(O)c(C(C)(C)C)c2)ccc1O [4,4'-Propane-2,2-diylbis(2-tert-butylphenol)]
LD50 (Mus musculus; Intraperitoneal): 40 mg/kg
LD50 (Mus musculus; intraperitoneal): 40 mg/kg

CCC(C)(C)c1ccc(O)cc1 [4-(2-Methylbutan-2-yl)phenol]
LEL (Rattus norvegicus [2]; uterotrophic, duration: 3 days, Active): 200 mg/kg-day and 202 mg/kg-day

CC(C)(C)C1CCC(O)CC1 (stereo unspecified) [4-tert-Butylcyclohexanol]
LD50 (Rattus norvegicus [1]; oral): 4200 mg/kg
LOAEL (Rattus norvegicus [1]; short-term, duration: 28 days, oral, gavage, Wistar): 150 mg/kg-day
LD50 (Oryctolagus sp.; acute, dermal): > 5000 mg/kg
LD50 (Mus musculus; Intraperitoneal, CF1): ≥ 50 mg/kg and ≤ 100 mg/kg

CC1(C)NC(=O)NC1=O [5,5-Dimethylhydantoin]
LC50 (Rattus norvegicus [1]; inhalation): > 14.7 µg/mL
LD50 (Rattus norvegicus [1]; oral, gavage, Sprague-Dawley): > 5000 mg/kg
NOAEL (Rattus norvegicus [1]; chronic, duration: 24 months, oral, diet, Crl:CDABR): > 1000 mg/kg-day
LOAEL (Rattus norvegicus [1]; [5]): > 1000 mg/kg-day
NOAEL (Rattus norvegicus [1]; [5]): 1000 mg/kg-day
NOAEL (Rattus norvegicus [1]; developmental, duration: 14 days, oral, gavage, Sprague-Dawley COBS CD): ≤ 2000 mg/kg-day
NOAEL (Rattus norvegicus [1]; developmental, oral, gavage, Crl:CD(SD) BR): 250 mg/kg-day
NOAEL (Rattus norvegicus [1]; reproduction developmental, duration: 10 weeks, oral, diet, CD, generation: F0): 20000 ppm
NOAEL (Rattus norvegicus [1]; reproduction developmental, duration: 10 weeks, oral, diet, CD, generation: F1): 20000 ppm
NOAEL (Rattus norvegicus [1]; reproduction developmental, oral, gavage, Crl:CD(SD) BR, generation: F0): 1000 mg/kg-day
NOAEL (Rattus norvegicus [1]; reproduction developmental, oral, gavage, F, Crl:CD(SD) BR): 1000 mg/kg-day
NOAEL (Rattus norvegicus [1]; subchronic, duration: 13 weeks, oral, gavage, Sprague-Dawley (CRl: CDBR)): 1000 mg/kg-day
LOAEL (Rattus norvegicus [1]; [6]): 5000 mg/kg-day
NOAEL (Rattus norvegicus [1]; [6]): 2000 mg/kg-day
LD50 (Oryctolagus sp.; acute, dermal, New Zealand): > 20000 mg/kg
LD50 (Oryctolagus sp.; [7]): > 3000 mg/kg
NOAEL (Oryctolagus sp.; developmental, duration: 13 days, oral, New Zealand): 100 mg/kg-day
NOAEL (Oryctolagus sp.; reproduction developmental, duration: 13 days, oral, F, New Zealand): 500 mg/kg-day
NOAEL (Mus musculus; short-term, duration: 28 days, oral, diet, F, CD1): 50000 ppm
LOAEL (Mus musculus; subchronic, duration: 13 weeks, oral, diet, CD1): 9850 mg/kg-day

C=C[C@@]12CCc3cc(O)ccc3[C@H]1CC[C@@]1(C)[C@H]2CC[C@@H]1O [8beta-Vinylestra-1,3,5(10)-triene-3,17beta-ol]
LOEL (Rattus norvegicus [2]; Hershberger, duration: 12 days, Wistar, active + Androgenic + androgenic): 100 mg/kg-day

CN(C)C(=S)SSC(=S)N(C)C [Bis(dimethylaminothiocarbonyl) disulfide]
LEL (Rattus norvegicus [3]): 15 mg/kg-day
NOEL (Rattus norvegicus [3]): 5 mg/kg-day
LD50 (Rattus norvegicus [1]; dermal): > 5000 mg/kg
LC50 (Rattus norvegicus [1]; inhalation, particle): > 6.22 µg/mL
LD50 (Rattus norvegicus [1]; oral, gavage, Sprague-Dawley): 1080 mg/kg
NOAEL (Rattus norvegicus [1]; reproduction developmental, duration: 10 days, oral, gavage, Crl:CD1, generation: F1): 7.5 mg/kg-day
NOAEL (Rattus norvegicus [1]; reproduction developmental, duration: 10 days, oral, gavage, F): > 30 mg/kg-day
NOAEL (Rattus norvegicus [1]; reproduction developmental, duration: 10 days, oral, gavage, F, Crl:CD1): 7.5 mg/kg-day
NOAEL (Rattus norvegicus [1]; reproduction developmental, duration: 10 days, oral, gavage, generation: F1): 7.5 mg/kg-day
NOAEL (Rattus norvegicus [1]; reproduction developmental, duration: 81 days, oral, diet, generation: F1): 60 ppm and 180 ppm
NOAEL (Rattus norvegicus [1]; subchronic, duration: 90 days, oral, diet, F): 2.5 mg/kg-day
NOAEL (Rattus norvegicus [1]; subchronic, duration: 90 days, oral, diet, M): 2.5 mg/kg-day
LD50 (Oryctolagus sp.; acute, dermal): ≥ 2000 mg/kg
LD50 (Oryctolagus sp.; acute, dermal, New Zealand): > 7940 mg/kg
NOAEL (Oryctolagus sp.; reproduction developmental, duration: 14 days, oral, F, New Zealand): 5 mg/kg-day
NOAEL (Oryctolagus sp.; reproduction developmental, duration: 14 days, oral, New Zealand, generation: F1): 5 mg/kg-day

CC(C)OC(C)C [Isopropyl ether]
NOEL (Rattus norvegicus [4]): < 100 mg/kg-day
NOAEL (Rattus norvegicus [1]; reproduction developmental, duration: 13 weeks, inhalation, Sprague-Dawley): 2010 mg/m3
NOAEL (Rattus norvegicus [1]; reproduction developmental, duration: 10 days, inhalation, F, Sprague-Dawley): 1800 mg/m3
LD50 (Oryctolagus sp.; acute, dermal, non-occlusive, New Zealand): > 2000 mg/kg
LD50 (Oryctolagus sp.; acute, oral, New Zealand): 4500 mg/kg

CN=C=O [Methyl isocyanate]
LOAEL (Rattus norvegicus [1]; developmental, duration: 0.5 hours, inhalation): < 0.495 mg/m3
NOAEL (Rattus norvegicus [1]; reproduction developmental, duration: 8 minutes, inhalation, whole body, Wistar, generation: F0): > 3140 mg/m3
LOAEL (Rattus norvegicus [1]; reproduction developmental, duration: 0.5 hours, inhalation, F): < 0.495 mg/m3
NOAEL (Rattus norvegicus [1]; reproduction developmental, duration: 0.5 hours, inhalation, generation: F0): > 0.824 mg/m3
LOAEL (Mus musculus; developmental, duration: 6 hours, inhalation, Swiss): < 2.33 mg/m3
NOAEL (Mus musculus; reproduction developmental, duration: 6 hours, inhalation, F, Swiss): > 7 mg/m3
NOAEL (Mus musculus; reproduction developmental, duration: 6 hours, inhalation, Swiss, generation: F0): > 7 mg/m3

CN1C(=O)c2ccccc2C1=O [N-Methylphthalimide]
LD50 (Rattus norvegicus [1]; oral, Spartan): > 500 mg/kg
LD50 (Rattus norvegicus [1]; oral, gavage, Spartan): > 500 mg/kg
NOAEL (Rattus norvegicus [1]; reproduction developmental, duration: 4 weeks, oral, gavage, F, Sprague-Dawley): 150 mg/kg-day
NOAEL (Rattus norvegicus [1]; reproduction developmental, duration: 4 weeks, oral, gavage, M, Sprague-Dawley): ≥ 600 mg/kg-day
NOAEL (Rattus norvegicus [1]; reproduction developmental, duration: 4 weeks, oral, gavage, Sprague-Dawley, generation: F0): 150 mg/kg-day
NOAEL (Rattus norvegicus [1]; reproduction developmental, duration: 4 weeks, oral, gavage, Sprague-Dawley, generation: F1): < 50 mg/kg-day
NOAEL (Rattus norvegicus [1]; reproduction developmental, oral, gavage, F): 150 mg/kg-day
NOAEL (Rattus norvegicus [1]; reproduction developmental, oral, gavage, generation: F0): 150 mg/kg-day
NOAEL (Rattus norvegicus [1]; reproduction developmental, oral, gavage, generation: F1): 50 mg/kg-day
LOAEL (% diet) (Rattus norvegicus [1]; [8]): 0.5
NOAEL (% diet) (Rattus norvegicus [1]; [8]): 0.25
LD50 (Oryctolagus sp.; [7]): > 2000 mg/kg
NOAEL (Oryctolagus sp.; developmental, duration: 6 days, oral, New Zealand): > 500 mg/kg-day
